From ChEMBL document CHEMBL1142021, “Aglycon specificity profiling of alpha-glucosidases using synthetic probes” (Bioorg Med Chem Lett, 2005) come the findings set out here.

The nature of assay [1]: Inhibition of Flint corn glucosidase (of family 31 alpha-glucosidase) by compound with concentration 1 umol/mI.
The target in assay [2] is T1, Alpha-glucosidase (Geobacillus stearothermophilus) (UniProt P94451).
T1 sequence (whole entry): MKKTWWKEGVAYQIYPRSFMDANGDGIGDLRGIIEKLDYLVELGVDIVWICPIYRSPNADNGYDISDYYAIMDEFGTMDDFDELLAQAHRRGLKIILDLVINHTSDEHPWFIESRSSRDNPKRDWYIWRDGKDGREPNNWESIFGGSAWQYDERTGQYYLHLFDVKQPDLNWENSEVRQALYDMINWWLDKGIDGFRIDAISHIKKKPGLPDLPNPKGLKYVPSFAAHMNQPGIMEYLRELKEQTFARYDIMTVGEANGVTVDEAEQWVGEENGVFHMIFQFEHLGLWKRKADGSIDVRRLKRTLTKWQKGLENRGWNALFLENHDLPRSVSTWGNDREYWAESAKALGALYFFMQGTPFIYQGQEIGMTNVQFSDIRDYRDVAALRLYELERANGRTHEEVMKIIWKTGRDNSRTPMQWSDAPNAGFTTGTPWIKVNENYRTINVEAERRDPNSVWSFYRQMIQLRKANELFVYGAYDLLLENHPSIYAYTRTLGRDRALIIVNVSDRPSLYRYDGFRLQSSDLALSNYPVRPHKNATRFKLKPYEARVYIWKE
In words: Inhibition of Bacillus stearothermophilus glucosidase (of family 13 alpha-glucosidase) at 1 umol/mL.

In assay [3] the target is T2, Alpha-glucosidase (Apis mellifera) (UniProt Q17058).
T2 sequence (whole entry): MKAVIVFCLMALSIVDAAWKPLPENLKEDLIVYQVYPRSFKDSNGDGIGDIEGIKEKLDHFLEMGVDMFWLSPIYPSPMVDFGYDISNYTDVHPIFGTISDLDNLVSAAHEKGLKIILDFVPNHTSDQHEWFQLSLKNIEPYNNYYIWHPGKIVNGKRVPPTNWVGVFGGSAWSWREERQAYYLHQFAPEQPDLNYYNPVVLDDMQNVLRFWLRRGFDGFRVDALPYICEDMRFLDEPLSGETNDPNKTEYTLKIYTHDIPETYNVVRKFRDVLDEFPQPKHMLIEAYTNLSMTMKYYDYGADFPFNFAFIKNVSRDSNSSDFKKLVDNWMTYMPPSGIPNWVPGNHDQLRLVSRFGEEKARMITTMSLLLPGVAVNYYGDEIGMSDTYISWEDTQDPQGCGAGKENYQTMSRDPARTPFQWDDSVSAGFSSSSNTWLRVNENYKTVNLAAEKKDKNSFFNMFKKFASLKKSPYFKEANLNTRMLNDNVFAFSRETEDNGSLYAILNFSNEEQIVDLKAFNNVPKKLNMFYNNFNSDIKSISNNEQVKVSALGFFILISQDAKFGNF
As to the kind of experiment: Inhibition of family 13 alpha-glucosidase isoform I from honey bee at 1 umol/mL.

In assay [4] the target is T2, Alpha-glucosidase (Apis mellifera). As to the kind of experiment: Inhibition of family 13 alpha-glucosidase isoform III from honey bee at 1 umol/mL.
Assay [5] deals with T3, Beta-galactosidase (Homo sapiens) (UniProt P16278).
T3 sequence (whole entry): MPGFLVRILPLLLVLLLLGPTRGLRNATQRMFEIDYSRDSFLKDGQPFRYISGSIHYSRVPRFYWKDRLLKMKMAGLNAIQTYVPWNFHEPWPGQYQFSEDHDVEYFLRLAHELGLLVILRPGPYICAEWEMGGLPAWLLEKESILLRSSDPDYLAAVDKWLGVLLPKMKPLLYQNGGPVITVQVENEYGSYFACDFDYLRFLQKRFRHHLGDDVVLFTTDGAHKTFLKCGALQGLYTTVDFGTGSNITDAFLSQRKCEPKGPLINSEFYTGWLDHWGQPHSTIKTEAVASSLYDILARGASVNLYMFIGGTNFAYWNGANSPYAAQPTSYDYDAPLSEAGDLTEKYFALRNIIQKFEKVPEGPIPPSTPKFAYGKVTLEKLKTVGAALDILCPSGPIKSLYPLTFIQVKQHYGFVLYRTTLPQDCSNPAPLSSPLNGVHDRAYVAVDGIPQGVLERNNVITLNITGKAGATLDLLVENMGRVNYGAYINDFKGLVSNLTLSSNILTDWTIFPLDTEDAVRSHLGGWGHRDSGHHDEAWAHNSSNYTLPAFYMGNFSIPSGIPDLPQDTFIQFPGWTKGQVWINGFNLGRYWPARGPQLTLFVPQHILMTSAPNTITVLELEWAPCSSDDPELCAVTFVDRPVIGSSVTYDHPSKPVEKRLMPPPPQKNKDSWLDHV
As to the kind of experiment: Inhibition of beta-Galactosidase at 5 umol/mL.

For assay [6], the target named is T2, Alpha-glucosidase (Apis mellifera). As to the kind of experiment: Inhibition of family 13 alpha-glucosidase isoform II from honey bee at 1 umol/mL.
The subject of the next assay is Saccharomyces cerevisiae. In words: Inhibition of Saccharomyces cerevisiae glucosidase (of family 13 alpha-glucosidase) by compound with concentration 1 umol/mI.
A further assay is filed under the species Homo sapiens. In words: Inhibition of alpha-Galactosidase at 5 umol/mL.
In assay [7] the target is T4, Alpha-glucosidase (Oryza sativa Japonica Group) (UniProt Q9LGC6).
T4 sequence (whole entry): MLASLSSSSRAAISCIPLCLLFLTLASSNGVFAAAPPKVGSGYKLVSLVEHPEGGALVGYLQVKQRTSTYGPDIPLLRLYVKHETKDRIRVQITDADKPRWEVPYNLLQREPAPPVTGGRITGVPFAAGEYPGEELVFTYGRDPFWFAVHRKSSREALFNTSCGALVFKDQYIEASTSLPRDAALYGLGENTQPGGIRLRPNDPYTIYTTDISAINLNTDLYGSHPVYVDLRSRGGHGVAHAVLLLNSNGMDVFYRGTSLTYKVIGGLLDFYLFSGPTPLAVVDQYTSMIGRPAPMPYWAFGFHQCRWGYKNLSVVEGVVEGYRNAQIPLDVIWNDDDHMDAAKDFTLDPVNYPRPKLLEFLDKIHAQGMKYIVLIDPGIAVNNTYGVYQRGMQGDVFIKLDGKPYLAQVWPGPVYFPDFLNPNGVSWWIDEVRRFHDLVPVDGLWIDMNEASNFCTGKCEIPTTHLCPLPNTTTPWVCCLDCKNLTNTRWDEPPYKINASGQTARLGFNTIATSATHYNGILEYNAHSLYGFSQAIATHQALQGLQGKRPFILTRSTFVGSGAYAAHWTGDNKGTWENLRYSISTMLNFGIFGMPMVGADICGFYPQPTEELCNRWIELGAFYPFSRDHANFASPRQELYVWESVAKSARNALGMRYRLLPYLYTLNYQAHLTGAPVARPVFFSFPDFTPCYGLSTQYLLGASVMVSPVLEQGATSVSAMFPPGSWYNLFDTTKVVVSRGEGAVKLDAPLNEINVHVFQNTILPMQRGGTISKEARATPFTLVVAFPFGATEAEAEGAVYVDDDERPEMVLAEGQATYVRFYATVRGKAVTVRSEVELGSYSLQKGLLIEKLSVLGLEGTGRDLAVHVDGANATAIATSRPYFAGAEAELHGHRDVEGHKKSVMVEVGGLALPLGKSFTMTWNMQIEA
As to the kind of experiment: Inhibition of Rice glucosidase (of family 31 alpha-glucosidase) at 1 umol/mL.

A value given as a limit tells only on which side of the number the result lay.

The inhibition is the relative decrease from the control value, in per cent.

For `O=C(CCO)NCC1OC(CO)C(O)C(O)C1O` (stereo not given), the inhibition in assay [1] is 14.1%; in assay [2], less than 1%; in [3], less than 1%; in assay [4], 3.2%; in assay [5] it was less than 1%; in assay [6], 2.7%. Moreover, the inhibition with Saccharomyces cerevisiae is 21.1%; in the assay listed under Homo sapiens, less than 1%; in assay [7], 8.5%.
On to `CC(C)(C)C(=O)NCC1OC(CO)C(O)C(O)C1O` (stereo not given), for which the inhibition was 5.6% in assay [1]; less than 1% in assay [2]; less than 1% in assay [3]; less than 1% in assay [4]; less than 1% in [5]; less than 1% in assay [6]. For the same compound, the inhibition in the assay on Saccharomyces cerevisiae was 6.1%; in the assay listed under Homo sapiens it was less than 1%; in [7], 3.8%.
For the compound `O=C(CCCCCO)NCC1OC(CO)C(O)C(O)C1O` (stereo not given), the inhibition in assay [1] is 44.6%; in [2], less than 1%; in assay [3], less than 1%; in assay [4], less than 1%; in assay [5], less than 1%; in [6], 4.4%. Moreover, the inhibition is less than 1% in the assay with Saccharomyces cerevisiae, less than 1% in the assay filed under Homo sapiens and 26% in [7].
Take `O=C(NCC1OC(CO)C(O)C(O)C1O)c1ccccc1` (stereo not given): the inhibition was 49.2% in [1]; less than 1% in assay [2]; 4.6% in assay [3]; less than 1% in assay [4]; less than 1% in assay [5]; 67.4% in the assay with Saccharomyces cerevisiae. Further, the values for the inhibition (in the assay listed under Homo sapiens; in assay [7]) were less than 1% and 16%, respectively.
Take `O=C(CCCO)NCC1OC(CO)C(O)C(O)C1O` (stereo not given): the inhibition is 18.5% in assay [1]; less than 1% in [2]; less than 1% in [4]; less than 1% in assay [5]; 3.6% in assay [6]; less than 1% with Saccharomyces cerevisiae. Besides, the figures for the inhibition (in the assay filed under Homo sapiens; in [7]) were less than 1% and 7.6%, respectively.
On to `O=C(CO)NCC1OC(CO)C(O)C(O)C1O` (stereo not given), for which the inhibition in assay [1] was 29.1%; in assay [2] it was less than 1%; in assay [3], less than 52.3%; in assay [4], less than 1%; in [5], less than 1%; in assay [6], 4.4%. Also, the results for the inhibition (in the assay with Saccharomyces cerevisiae; in the assay listed under Homo sapiens; in assay [7]) were less than 1%, less than 1% and 10.7%, respectively.
Consider `CC(=O)NCC1OC(CO)C(O)C(O)C1O` (stereo not given), for which the inhibition is 31% in [1]; less than 1% in assay [2]; 10.4% in assay [3]; less than 1% in [4]; less than 1% in assay [5]; less than 1% in assay [6]. Also, the figures for the inhibition (in the assay on Saccharomyces cerevisiae; in the assay filed under Homo sapiens; in assay [7]) were less than 1%, less than 1% and 21.8%, respectively.
As for `O=C(CCCCO)NCC1OC(CO)C(O)C(O)C1O` (stereo not given), the inhibition in assay [1] is 37%; in [2], 100%; in assay [3], 37.5%; in [4] it was less than 1%; in assay [5], less than 1%; in [6], 21.4%. Also, the inhibition in the assay on Saccharomyces cerevisiae is 100%; in the assay listed under Homo sapiens, less than 1%; in assay [7], 18.3%.
